According to US20040209914A1, “Aromatic sulfone hydroxamic acids and their use as protease inhibitors” (priority 2000, published 2004):
Read-outs that look alike come from different tables or passages of the source.

Legend:
[1] = tested on: solid tumor cancers (colorectal, pancreatic, ovarian, and prostate); conditions: patients with advanced, rapidly progressive, treatment-refractory solid tumor cancers; cited from earlier work
Recombinant human MMP-2 = biological target: T1, Recombinant human MMP-2 (Homo sapiens, UniProt P08253); experiment: biochemical; conditions: fluorogenic MCA-peptide substrate, pH 7.5, room temperature
T1 construct: made in house
T1 sequence (P08253 110-660): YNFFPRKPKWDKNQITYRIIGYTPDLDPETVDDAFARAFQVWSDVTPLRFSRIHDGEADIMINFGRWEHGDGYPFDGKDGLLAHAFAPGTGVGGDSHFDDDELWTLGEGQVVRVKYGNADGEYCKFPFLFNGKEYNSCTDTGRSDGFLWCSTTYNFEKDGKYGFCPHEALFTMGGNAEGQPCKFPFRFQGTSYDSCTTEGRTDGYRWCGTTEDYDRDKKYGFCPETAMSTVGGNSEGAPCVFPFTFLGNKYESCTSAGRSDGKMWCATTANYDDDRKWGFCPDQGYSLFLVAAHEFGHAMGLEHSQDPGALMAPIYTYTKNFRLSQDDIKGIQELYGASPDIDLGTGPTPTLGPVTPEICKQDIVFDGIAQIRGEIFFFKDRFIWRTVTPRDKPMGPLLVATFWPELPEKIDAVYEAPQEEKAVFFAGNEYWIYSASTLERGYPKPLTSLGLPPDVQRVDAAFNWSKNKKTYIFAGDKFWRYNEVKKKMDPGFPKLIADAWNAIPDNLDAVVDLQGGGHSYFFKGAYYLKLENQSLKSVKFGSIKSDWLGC
How it was run: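 Activated (APMA or trypsin) recombinant human MMP-2, from transfected expressing cells, incubated at room temperature with 4 uM fluorogenic substrate MCA-Pro-Leu-Gly-Leu-Dpa-Ala-Arg-NH2 and hydroxamate inhibitor.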

Recombinant human MMP-1 = biological target: T2, Recombinant human MMP-1 (Homo sapiens, UniProt P03956); experiment: biochemical; conditions: fluorogenic MCA-peptide substrate, pH 7.5, room temperature
T2 construct: made in house; host or cells: transfected HT-1080 cells
T2 sequence (P03956 100-469): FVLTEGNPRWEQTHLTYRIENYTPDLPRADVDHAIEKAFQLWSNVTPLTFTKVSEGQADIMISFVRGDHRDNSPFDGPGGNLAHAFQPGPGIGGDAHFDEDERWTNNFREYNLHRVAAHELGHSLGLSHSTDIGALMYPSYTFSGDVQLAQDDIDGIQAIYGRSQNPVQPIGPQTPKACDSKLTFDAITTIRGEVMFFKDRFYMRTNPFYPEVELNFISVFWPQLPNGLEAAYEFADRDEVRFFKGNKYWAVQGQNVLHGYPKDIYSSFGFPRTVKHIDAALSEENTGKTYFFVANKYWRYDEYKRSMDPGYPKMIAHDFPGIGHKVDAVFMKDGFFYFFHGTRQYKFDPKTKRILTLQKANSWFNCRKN
How it was run: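 Recombinant human MMP-1 from transfected HT-1080 cells, APMA-activated and hydroxamate-column purified, was incubated at room temperature with 4 uM MCA-ProLeuGlyLeuDpaAlaArgNH2 fluorogenic substrate. Inhibition taken as fall in fluorescence versus inhibitor concentration, giving IC50.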

Recombinant human MMP-13 = biological target: T3, Recombinant human MMP-13 (Homo sapiens, UniProt P45452); experiment: biochemical; conditions: fluorogenic MCA-peptide substrate, pH 7.5, room temperature; read-out: MMP-13 IC50
T3 construct: made in house; host or cells: baculovirus / insect cells
How it was run: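 APMA-activated MMP (proenzyme purified on heparin agarose and chelating zinc columns) incubated at room temperature with 4 uM fluorogenic MCA-ProLeuGlyLeuDpaAlaArgNH2 substrate. Inhibition read as reduced fluorescence versus inhibitor concentration relative to a DMSO control, giving IC50.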

CNC(=O)[C@@H](NC(=O)[C@H](CC(C)C)[C@H](O)C(=O)NO)C(C)(C)C [Marimastat]
effect on cancer-specific antigens used as surrogate markers for biological activity [1]: dose-related reduction in the rise of cancer-specific antigens

CCN1CCC(C(=O)NO)(S(=O)(=O)c2ccc(N3CCC(C(=O)c4ccc(CC5CCC5)cc4)CC3)cc2)CC1 [Example 195]
IC50 (Recombinant human MMP-2; read-out: MMP-2 IC50): 463 nM
IC50 (Recombinant human MMP-1): > 10 µM
IC50 (Recombinant human MMP-13): 0.0003 µM

O=C(c1ccc(F)c(F)c1)C1CCN(c2ccc(S(=O)(=O)C3(C(=O)NO)CCOCC3)cc2)CC1 [Example 302]
IC50 (Recombinant human MMP-2; read-out: MMP-2 IC50): 35 nM
IC50 (Recombinant human MMP-1): > 10 µM
IC50 (Recombinant human MMP-13): 0.0019 µM

CCC(CC)Cc1ccc(C(=O)C2CCN(c3ccc(S(=O)(=O)C4(C(=O)NO)CCN(CCOC)CC4)cc3)CC2)cc1 [Example 230]
IC50 (Recombinant human MMP-2; read-out: MMP-2 IC50): 745 nM
IC50 (Recombinant human MMP-1): > 10 µM
IC50 (Recombinant human MMP-13): 0.0001 µM

C=CCN1CCC(C(=O)NO)(S(=O)(=O)c2ccc(N3CCC(C(=O)c4ccc(OC)cc4)CC3)cc2)CC1 [Example 182]
IC50 (Recombinant human MMP-2; read-out: MMP-2 IC50): 115 nM
IC50 (Recombinant human MMP-1): > 10 µM
IC50 (Recombinant human MMP-13): 0.0011 µM

C#CCN1CCC(C(=O)NO)(S(=O)(=O)c2ccc(N3CCC(C(=O)c4cccc(C)c4)CC3)cc2)CC1 [Example 154]
IC50 (Recombinant human MMP-2; read-out: MMP-2 IC50): 176 nM
IC50 (Recombinant human MMP-1): > 10 µM
IC50 (Recombinant human MMP-13): 0.0024 µM

COCCN1CCC(C(=O)NO)(S(=O)(=O)c2ccc(N3CCC(c4ccc(Cl)cc4)CC3)cc2)CC1 [Example 271]
IC50 (Recombinant human MMP-2; read-out: MMP-2 IC50): 1.7 nM
IC50 (Recombinant human MMP-1): > 10 µM
IC50 (Recombinant human MMP-13): 0.0008 µM

COCCN1CCC(C(=O)NO)(S(=O)(=O)c2ccc(N3CCC(C(=O)c4ccc(CC5CCCC5)cc4)CC3)cc2)CC1 [Example 202]
IC50 (Recombinant human MMP-2; read-out: MMP-2 IC50): 1020 nM
IC50 (Recombinant human MMP-1): > 10 µM
IC50 (Recombinant human MMP-13): 0.0004 µM

C=CCN1CCC(C(=O)NO)(S(=O)(=O)c2ccc(N3CCC(C(=O)c4ccc(Cl)cc4)CC3)cc2)CC1 [Example 180]
IC50 (Recombinant human MMP-2; read-out: MMP-2 IC50): 52.7 nM
IC50 (Recombinant human MMP-1): > 10 µM
IC50 (Recombinant human MMP-13): 0.0003 µM

COCCN1CCC(C(=O)NO)(S(=O)(=O)c2ccc(N3CCC(C(=O)c4ccc(Cl)cc4)CC3)cc2)CC1 [Example 119]
IC50 (Recombinant human MMP-2; read-out: MMP-2 IC50): 200 nM
IC50 (Recombinant human MMP-1): > 10 µM
IC50 (Recombinant human MMP-13): 0.001 µM

CC(=O)c1ccc(N2CCN(C(=O)C3CCN(c4ccc(S(=O)(=O)C5(C(=O)NO)CCOCC5)cc4)CC3)CC2)cc1 [Example 24]
IC50 (Recombinant human MMP-2; MMP-2 IC50(nM)): 700 nM
IC50 (Recombinant human MMP-1): > 10 µM
IC50 (Recombinant human MMP-13): 0.0067 µM

C#CCN1CCC(C(=O)NO)(S(=O)(=O)c2ccc(N3CCC(C(=O)c4ccc(C)cc4)CC3)cc2)CC1 [Example 152]
IC50 (Recombinant human MMP-2; read-out: MMP-2 IC50): 56.3 nM
IC50 (Recombinant human MMP-1): > 10 µM
IC50 (Recombinant human MMP-13): 0.0006 µM

CCC(C)Cc1ccc(C(=O)C2CCN(c3ccc(S(=O)(=O)C4(C(=O)NO)CCN(C5CC5)CC4)cc3)CC2)cc1 (stereo not shown) [Example 200]
IC50 (Recombinant human MMP-2; read-out: MMP-2 IC50): 1400 nM
IC50 (Recombinant human MMP-1): > 10 µM
IC50 (Recombinant human MMP-13): 0.0005 µM

COCCN1CCC(C(=O)NO)(S(=O)(=O)c2ccc(N3CCC(C(=O)c4ccc(COCC(C)C)s4)CC3)cc2)CC1 [Example 243]
IC50 (Recombinant human MMP-2; read-out: MMP-2 IC50): 56 nM
IC50 (Recombinant human MMP-1): > 10 µM
IC50 (Recombinant human MMP-13): 0.0003 µM

CCN1CCC(C(=O)NO)(S(=O)(=O)c2ccc(N3CCC(C(=O)c4ccc(CC(C)CO)cc4)CC3)cc2)CC1 (stereo not shown) [Example 235]
IC50 (Recombinant human MMP-2; read-out: MMP-2 IC50): 118 nM
IC50 (Recombinant human MMP-1): > 10 µM
IC50 (Recombinant human MMP-13): 0.0008 µM

CCc1ccc(C(=O)C2CCN(c3ccc(S(=O)(=O)C4(C(=O)NO)CCN(CCOC)CC4)cc3)CC2)cc1 [Example 212]
IC50 (Recombinant human MMP-2; read-out: MMP-2 IC50): 110 nM
IC50 (Recombinant human MMP-1): > 10 µM
IC50 (Recombinant human MMP-13): 0.0002 µM

CC(C)Oc1ccc(C(=O)C2CCN(c3ccc(S(=O)(=O)C4(C(=O)NO)CCN(C5CC5)CC4)cc3)CC2)cc1 [Example 215]
IC50 (Recombinant human MMP-2; read-out: MMP-2 IC50): 22.7 nM
IC50 (Recombinant human MMP-1): > 10 µM
IC50 (Recombinant human MMP-13): 0.0009 µM

COCCN1CCC(C(=O)NO)(S(=O)(=O)c2ccc(N3CCC(C(=O)c4ccc(OC)cc4)CC3)cc2)CC1 [Example 156]
IC50 (Recombinant human MMP-2; read-out: MMP-2 IC50): 1340 nM
IC50 (Recombinant human MMP-1): > 10 µM
IC50 (Recombinant human MMP-13): 0.0007 µM

CC(C)CCOc1ccc(C(=O)C2CCN(c3ccc(S(=O)(=O)C4(C(=O)NO)CCN(C5CC5)CC4)cc3)CC2)cc1 [Example 217]
IC50 (Recombinant human MMP-2; read-out: MMP-2 IC50): 270 nM
IC50 (Recombinant human MMP-1): > 10 µM
IC50 (Recombinant human MMP-13): 0.0013 µM

Cc1ccc(N2CCN(C(=O)C3CCN(c4ccc(S(=O)(=O)C5(C(=O)NO)CCOCC5)cc4)CC3)CC2)c(C)c1 [Example 9]
IC50 (Recombinant human MMP-2; read-out: MMP-2 IC50): 5600 nM
IC50 (Recombinant human MMP-1): > 10 µM
IC50 (Recombinant human MMP-13): 0.0122 µM

C=CCN1CCC(C(=O)NO)(S(=O)(=O)c2ccc(N3CCC(C(=O)c4ccc5ccccc5c4)CC3)cc2)CC1 [Example 160]
IC50 (Recombinant human MMP-2; read-out: MMP-2 IC50): 198 nM
IC50 (Recombinant human MMP-1): > 10 µM
IC50 (Recombinant human MMP-13): 0.0004 µM

Cc1cc(C(=O)C2CCN(c3ccc(S(=O)(=O)C4(C(=O)NO)CCOCC4)cc3)CC2)ccc1OC(C)C [Example 376]
IC50 (Recombinant human MMP-2; read-out: MMP-2 IC50): 2190 nM
IC50 (Recombinant human MMP-1): > 10 µM
IC50 (Recombinant human MMP-13): 0.0064 µM

COCCN1CCC(C(=O)NO)(S(=O)(=O)c2ccc(N3CCC(C(=O)c4ccc(CC(C)CO)cc4)CC3)cc2)CC1 (stereo not shown) [Example 231]
IC50 (Recombinant human MMP-2; read-out: MMP-2 IC50): 39.4 nM
IC50 (Recombinant human MMP-1): > 10 µM
IC50 (Recombinant human MMP-13): 0.0005 µM

CCN1CCC(C(=O)NO)(S(=O)(=O)c2ccc(N3CCC(C(=O)c4ccc(Cl)c(C)c4)CC3)cc2)CC1 [Example 221]
IC50 (Recombinant human MMP-2; read-out: MMP-2 IC50): 301 nM
IC50 (Recombinant human MMP-1): > 10 µM
IC50 (Recombinant human MMP-13): 0.0034 µM

Cc1ccc(C(=O)C2CCN(c3ccc(S(=O)(=O)C4(C(=O)NO)CCN(S(C)(=O)=O)CC4)cc3)CC2)cc1 [Example 207]
IC50 (Recombinant human MMP-2; read-out: MMP-2 IC50): 4.4 nM
IC50 (Recombinant human MMP-1): > 10 µM
IC50 (Recombinant human MMP-13): 0.0011 µM

COc1ccccc1N1CCN(C(=O)C2CCN(c3ccc(S(=O)(=O)C4(C(=O)NO)CCOCC4)cc3)CC2)CC1 [Example 7]
IC50 (Recombinant human MMP-2; read-out: MMP-2 IC50): 4500 nM
IC50 (Recombinant human MMP-1): > 10 µM
IC50 (Recombinant human MMP-13): 0.018 µM

CCc1ccc(C(=O)C2CCN(c3ccc(S(=O)(=O)C4(C(=O)NO)CCN(S(C)(=O)=O)CC4)cc3)CC2)cc1 [Example 220]
IC50 (Recombinant human MMP-2; read-out: MMP-2 IC50): 290 nM
IC50 (Recombinant human MMP-1): > 10 µM
IC50 (Recombinant human MMP-13): 0.0017 µM

CCN1CCC(C(=O)NO)(S(=O)(=O)c2ccc(N3CCC(C(=O)c4ccc(N(C)C)cc4)CC3)cc2)CC1 [Example 168]
IC50 (Recombinant human MMP-2; read-out: MMP-2 IC50): 2180 nM
IC50 (Recombinant human MMP-1): > 10 µM
IC50 (Recombinant human MMP-13): 0.0021 µM
